Assay: Effect on blood triglyceride in rats after repeated oral administration
Assay type: in vivo
Conditions: male Wistar rats; orally once a day for 21 days; pitavastatin calcium 10 mg/kg and/or EPA-E 1000 mg/kg; blood taken after fasting for 18 hours since final administration; FIG. 1
Protocol: Male Wistar rats aged 6 weeks (Japan Medical Science Experimental Animal Co., Ltd.) were tested. They were fed in a room maintained in a bright and dark cycle (bright duration by a room light: 7:00 a.m. to 7:00 p.m.) at a temperature of 23±3° C. and a humidity of 55±15% through an experimental duration and allowed to freely take a chow (CE-2; Nippon Clear Co., Ltd.) and city water. Pitavastatin calcium was suspended in a 0.5 mass % aqueous solution of sodium carboxymethyl cellulose (Iwai Kagaku Yakuhin Co., Ltd.) and controlled so that a dose was 2 ml/kg. Pitavastatin calcium contained 9.43 mass % of water, and therefore an amount as 1.1 mass time much as the dose was weighed to correct the practical dose. The suspension was refrigerated (4° C.) in a shaded bottle, and it was prepared every 7 days. EPA-E was taken from Epadel capsule (Dainippon Seiyaku Co., Ltd.) in use, suspended in refined water and controlled so that a dose was 2 ml/kg. […] The differences of multiple groups between the control group and the drug-administered groups were analyzed using Dunnett's multiple comparison test, preceded by Bartlett's analysis of variance.

O=C([O-])C[C@H](O)C[C@H](O)/C=C/c1c(C2CC2)nc2ccccc2c1-c1ccc(F)cc1.O=C([O-])C[C@H](O)C[C@H](O)/C=C/c1c(C2CC2)nc2ccccc2c1-c1ccc(F)cc1.[Ca+2] [pitavastatin calcium]
triglyceride concentration in blood: tended to be lowered

— patent US20060111437A1, “Hyperlipemia therapeutic agent” (Kowa Co., Ltd., priority 2004, published 2006)
